Results taken from US20240366551A1, “MIXTURES AND COMPOSITIONS COMPRISING SULFORAPHANE AND GLYCINE” (SOCIETE DES PRODUITS NESTLE S.A., priority 2021, published 2024).

System: Zebrafish larvae
Assay: Zebrafish larvae survival assay under hydrogen peroxide oxidative stress
Format: in vivo, zebrafish (AB strain)
Details: for larvae survived: compound 12 h before H2O2, survival after 24 h
Description: Zebrafish larvae provide a suitable vertebrate model for studying the oxidative stress […]. […] Survival assays were performed according to a protocol described previously^36 with some modifications. Briefly, wild-type zebrafish larvae
(AB strain, ZFIN ID: ZDB-GENO-960809-7) were used. At 3.5 days post fertilization (dpf), 24 larvae per condition were placed in a 60-mm petri dish with 5 ml of egg water (0.6 g/L Ocean sea salt, Tecniplast). Compounds of interest were directly added into the egg water for 12 h. Subsequently, compounds were removed at 4 days post fertilization (dpf4) and larvae were transferred to a 96-well plate in a volume of 200 μl fresh egg water containing 2.5 mM hydrogen peroxide (H2O2; Sigma Merck). Survival was monitored after 24 h of treatment.

Structure (SMILES) | larvae survived (vehicle+2.5 mM H2O2+500 μM L-glycine) [%] | Predicted (LS) mean diff (survival, comparison 0 μM vs. treated group, 2.5 mM H2O2, 2 way ANOVA, Tukey's) | larvae survived (vehicle+2.5 mM H2O2+1 μM Sfn) [%]
NCC(=O)O [L-glycine] | ~10 | – | –
C[S+]([O-])CCCCN=C=S (stereo not drawn) [Sfn, 4-methylsulfinylbutyl isothiocyanate] | – | −7.077 | ~10
